ChEMBL document CHEMBL5608245, “Inhibition of the EphA2-Sam/Ship2-Sam Association through Peptide Ligands: Studying the Combined Effect of Charge and Aromatic Character” (J Med Chem, 2024)
Activity calls are given as the source filed them. The rule behind the calls is not given here. Where a SMILES comes first, the peptide text is derived from it.

What was measured:
[1] = target: Tyrosine-protein kinase Lyn (Homo sapiens) (UniProt P07948); test: Binding affinity to His tagged human LYN SH2 domain (129 to 226 residues) extracted from Escherichia coli BL21 (DE3) cells at 289 uM by NMR spectroscopy
Tyrosine-protein kinase Lyn (Homo sapiens), sequence (P07948 2-512 limits assumed): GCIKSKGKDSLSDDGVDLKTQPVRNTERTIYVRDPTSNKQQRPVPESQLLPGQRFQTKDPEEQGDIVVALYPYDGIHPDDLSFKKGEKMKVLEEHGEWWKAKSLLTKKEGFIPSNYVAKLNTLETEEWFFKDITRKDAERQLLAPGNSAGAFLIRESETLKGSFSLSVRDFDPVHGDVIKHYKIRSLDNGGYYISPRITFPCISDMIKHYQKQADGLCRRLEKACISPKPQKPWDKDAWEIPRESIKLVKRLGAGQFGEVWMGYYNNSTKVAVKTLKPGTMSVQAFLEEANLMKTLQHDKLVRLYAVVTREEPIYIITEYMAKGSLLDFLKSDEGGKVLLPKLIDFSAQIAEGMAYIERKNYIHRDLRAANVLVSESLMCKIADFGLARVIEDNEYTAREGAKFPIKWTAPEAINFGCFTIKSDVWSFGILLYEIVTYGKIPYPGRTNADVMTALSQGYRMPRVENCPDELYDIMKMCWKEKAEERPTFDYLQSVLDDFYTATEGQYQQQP

Homo sapiens = species: Homo sapiens; settings: dose 4.2 mM
Description: Inhibition of recombinant human 15N-labeled EPHA2 Sam domain (904 to 968 residues)/recombinant human SHIP2 Sam domain (1194 to 1258 residues) protein-protein interaction extracted from Escherichia coli BL21 (DE3) cells at 4.2 mM by NMR displacement assay

[2] = target: Ephrin type-A receptor 2 (Homo sapiens) (UniProt P29317); test: Induction of EPHA2 receptor internalization in human PC-3 cells assessed as effect on EPHA2 protein level at 50 uM incubated for 4 hrs by Western blotting analysis; type: cell-based
Ephrin type-A receptor 2 (Homo sapiens), sequence (P29317 whole entry): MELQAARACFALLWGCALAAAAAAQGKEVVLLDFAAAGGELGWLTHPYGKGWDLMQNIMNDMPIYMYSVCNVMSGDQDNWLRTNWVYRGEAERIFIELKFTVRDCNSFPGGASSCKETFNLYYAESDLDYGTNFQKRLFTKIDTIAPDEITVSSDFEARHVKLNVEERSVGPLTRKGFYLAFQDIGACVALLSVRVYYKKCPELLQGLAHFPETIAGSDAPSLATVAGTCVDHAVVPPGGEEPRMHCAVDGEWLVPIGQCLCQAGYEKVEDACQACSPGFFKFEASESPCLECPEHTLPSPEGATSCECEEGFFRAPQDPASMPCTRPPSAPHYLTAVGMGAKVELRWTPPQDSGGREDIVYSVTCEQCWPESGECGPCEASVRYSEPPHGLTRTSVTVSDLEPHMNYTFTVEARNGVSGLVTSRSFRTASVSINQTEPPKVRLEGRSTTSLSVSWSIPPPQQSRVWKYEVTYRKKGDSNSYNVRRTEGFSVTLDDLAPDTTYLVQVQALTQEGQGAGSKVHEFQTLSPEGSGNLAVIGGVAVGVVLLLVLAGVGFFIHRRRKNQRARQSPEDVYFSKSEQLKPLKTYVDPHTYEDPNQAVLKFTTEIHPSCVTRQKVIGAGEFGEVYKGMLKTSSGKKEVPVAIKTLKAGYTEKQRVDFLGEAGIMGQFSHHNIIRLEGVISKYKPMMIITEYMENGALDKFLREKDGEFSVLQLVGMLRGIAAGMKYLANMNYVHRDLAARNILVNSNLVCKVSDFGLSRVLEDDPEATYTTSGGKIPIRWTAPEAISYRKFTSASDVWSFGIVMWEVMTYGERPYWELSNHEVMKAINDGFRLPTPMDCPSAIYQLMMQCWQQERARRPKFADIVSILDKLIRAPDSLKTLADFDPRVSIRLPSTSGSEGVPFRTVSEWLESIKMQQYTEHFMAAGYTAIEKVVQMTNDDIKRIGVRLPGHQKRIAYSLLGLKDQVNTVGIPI

[3] = target: Ephrin type-A receptor 2 (Homo sapiens) (UniProt P29317); test: Induction of EPHA2 receptor internalization in human PC-3 cells assessed as effect on EPHA2 protein level at 50 uM preincubated for 4 hrs followed by ephrinA1-Fc addition and measured after 2 hrs by Western blotting analysis; type: cell-based; settings: time 6.0 hrs
NHDF = test: Cytotoxicity against human NHDF cells assessed as reduction in cell viability at 50 uM incubated for 4 hrs by crystal violet staining based assay; type: toxicity
PC-3 = test: Cytotoxicity against human PC-3 cells assessed as reduction in cell viability at 50 uM incubated for 4 hrs by crystal violet staining based assay; type: toxicity; settings: pc-3, 4 h
[4] = target: Arf-GAP with Rho-GAP domain, ANK repeat and PH domain-containing protein 3 (Homo sapiens) (UniProt Q8WWN8); test: Binding affinity to N-terminal His6 tagged human ARAP3 Sam domain (1 to 80 residues) extracted from Escherichia coli BL21 (DE3) cells at 300 uM by NMR spectroscopy
Arf-GAP with Rho-GAP domain, ANK repeat and PH domain-containing protein 3 (Homo sapiens), sequence (Q8WWN8 whole entry, the tested form may be a part): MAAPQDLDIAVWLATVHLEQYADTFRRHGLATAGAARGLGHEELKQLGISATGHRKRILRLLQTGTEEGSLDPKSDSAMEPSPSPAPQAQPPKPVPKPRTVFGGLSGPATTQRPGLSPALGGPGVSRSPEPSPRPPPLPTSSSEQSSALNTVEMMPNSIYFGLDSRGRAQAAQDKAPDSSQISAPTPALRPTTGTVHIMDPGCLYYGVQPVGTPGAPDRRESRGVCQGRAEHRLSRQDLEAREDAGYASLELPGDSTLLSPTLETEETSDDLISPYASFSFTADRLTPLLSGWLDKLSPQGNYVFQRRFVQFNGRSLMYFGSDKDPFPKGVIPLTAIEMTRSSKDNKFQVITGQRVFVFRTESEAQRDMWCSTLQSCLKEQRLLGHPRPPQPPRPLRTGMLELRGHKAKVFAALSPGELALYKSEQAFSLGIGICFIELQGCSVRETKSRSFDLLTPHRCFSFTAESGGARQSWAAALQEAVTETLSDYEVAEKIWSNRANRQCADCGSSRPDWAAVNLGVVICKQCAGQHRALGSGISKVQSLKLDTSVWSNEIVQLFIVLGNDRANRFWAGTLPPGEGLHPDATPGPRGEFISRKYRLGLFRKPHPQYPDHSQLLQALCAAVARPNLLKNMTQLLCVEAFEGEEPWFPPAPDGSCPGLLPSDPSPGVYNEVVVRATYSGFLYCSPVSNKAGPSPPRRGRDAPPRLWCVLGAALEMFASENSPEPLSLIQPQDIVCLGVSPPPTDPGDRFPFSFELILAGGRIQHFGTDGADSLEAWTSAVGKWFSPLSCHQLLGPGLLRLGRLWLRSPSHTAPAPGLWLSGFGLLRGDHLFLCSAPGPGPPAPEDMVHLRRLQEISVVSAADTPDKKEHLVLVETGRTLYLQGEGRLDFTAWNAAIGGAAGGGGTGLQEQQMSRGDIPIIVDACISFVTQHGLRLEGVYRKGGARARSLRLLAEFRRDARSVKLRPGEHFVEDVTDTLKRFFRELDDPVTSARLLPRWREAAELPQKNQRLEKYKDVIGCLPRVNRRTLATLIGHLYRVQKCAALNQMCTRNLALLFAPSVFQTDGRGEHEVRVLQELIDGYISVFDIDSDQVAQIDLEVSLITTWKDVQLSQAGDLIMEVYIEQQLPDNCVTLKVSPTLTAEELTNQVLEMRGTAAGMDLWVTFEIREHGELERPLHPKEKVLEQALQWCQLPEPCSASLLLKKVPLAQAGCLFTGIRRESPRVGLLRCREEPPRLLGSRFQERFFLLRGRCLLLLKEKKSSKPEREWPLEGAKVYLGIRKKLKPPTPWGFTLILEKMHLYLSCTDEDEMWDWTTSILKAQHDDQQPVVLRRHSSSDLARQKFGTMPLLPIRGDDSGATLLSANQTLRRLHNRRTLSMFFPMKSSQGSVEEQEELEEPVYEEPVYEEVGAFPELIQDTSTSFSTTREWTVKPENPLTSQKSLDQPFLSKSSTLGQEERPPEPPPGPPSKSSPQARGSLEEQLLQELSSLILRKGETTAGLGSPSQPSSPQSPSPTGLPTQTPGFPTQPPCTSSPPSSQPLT

[5] = Self-assembly property of compound in 80% TFE assessed as helical content by circular dichroism spectra analysis; type: physicochemical

CC(=O)N[C@@H](CCCCN)C(=O)N[C@@H](CCCNC(=N)N)C(=O)N[C@@H](CCCCN)C(=O)N[C@@H](C)C(=O)N[C@@H](Cc1c[nH]c2ccccc12)C(=O)N[C@@H](CCCCN)C(=O)N[C@@H](CCCNC(=N)N)C(=O)N[C@@H](CCCCN)C(=O)N[C@@H](C)C(=O)N[C@@H](Cc1ccc(O)cc1)C(=O)N[C@@H](CCCCN)C(=O)N[C@@H](CCCNC(=N)N)C(=O)N[C@@H](CCCCN)C(=O)N[C@@H](C)C(=O)N[C@@H](Cc1c[nH]c2ccccc12)C(N)=O (Ac-KRKAWKRKAYKRKAW-NH2)
Activity [1]: inactive

CC[C@H](C)[C@H](NC(=O)[C@H](CCCNC(=N)N)NC(=O)[C@H](CCCCN)NC(=O)[C@H](Cc1ccc(O)cc1)NC(=O)[C@H](C)NC(=O)[C@H](CCCCN)NC(=O)[C@H](CCCNC(=N)N)NC(=O)[C@H](CCCCN)NC(=O)[C@H](Cc1ccc(O)cc1)NC(=O)[C@H](C)NC(=O)[C@H](CCCCN)NC(=O)[C@H](CCCNC(=N)N)NC(=O)[C@H](CCCCN)NC(C)=O)C(=O)N[C@@H](C)C(=O)N[C@@H](Cc1ccc(O)cc1)C(N)=O (Ac-KRKAYKRKAYKRIAY-NH2)
inhibition (Homo sapiens): inactive

CC[C@H](C)[C@H](NC(=O)[C@H](CCCNC(=N)N)NC(=O)[C@H](CCCCN)NC(=O)CNC(=O)CNC(=O)[C@H](CCC(N)=O)NC(=O)[C@@H]1CCCN1C(=O)[C@@H]1CCCN1C(=O)[C@@H](CCCNC(=N)N)NC(=O)[C@@H](CCCNC(=N)N)NC(=O)[C@@H](CCCNC(=N)N)NC(=O)[C@@H](CCC(N)=O)NC(=O)[C@@H](CCCNC(=N)N)NC(=O)[C@@H](CCCNC(=N)N)NC(=O)[C@@H](CCCCN)NC(=O)[C@@H](CCCCN)NC(=O)[C@@H](CCCNC(=N)N)NC(=O)CNC(=O)[C@H](C)NC(C)=O)C(=O)N[C@@H](C)C(=O)N[C@@H](Cc1ccc(O)cc1)C(=O)N[C@@H](CCCCN)C(=O)N[C@@H](CCCNC(=N)N)C(=O)N[C@H](C(=O)N[C@@H](C)C(=O)N[C@@H](Cc1ccc(O)cc1)C(=O)N[C@@H](CCCCN)C(=O)N[C@@H](CCCNC(=N)N)C(=O)N[C@H](C(=O)N[C@@H](C)C(=O)N[C@@H](Cc1ccc(O)cc1)C(N)=O)[C@@H](C)CC)[C@@H](C)CC
Activity [2]: inactive
Activity [3]: inactive

CSCC[C@H](NC(=O)[C@H](Cc1ccccc1)NC(=O)[C@H](CCCCN)NC(=O)[C@H](CC(=O)O)NC(=O)[C@H](CCC(=O)O)NC(=O)[C@H](CCCNC(=N)N)NC(=O)[C@H](CCCNC(=N)N)NC(=O)[C@@H](NC(=O)[C@@H]1CCCN1C(=O)CNC(=O)CNC(=O)CNC(=O)[C@H](CCC(N)=O)NC(=O)[C@@H]1CCCN1C(=O)[C@H]1CCCN1C(=O)[C@H](CCCNC(=N)N)NC(=O)[C@H](CCCNC(=N)N)NC(=O)[C@H](CCCNC(=N)N)NC(=O)[C@H](CCC(N)=O)NC(=O)[C@H](CCCNC(=N)N)NC(=O)[C@H](CCCNC(=N)N)NC(=O)[C@H](CCCCN)NC(=O)[C@H](CCCCN)NC(=O)[C@H](CCCNC(=N)N)NC(=O)CNC(=O)[C@H](C)NC(C)=O)[C@@H](C)O)C(=O)N[C@@H](Cc1ccc(O)cc1)C(=O)N[C@@H](Cc1ccccc1)C(N)=O
Activity [2]: inactive
Activity [3]: inactive

CC(=O)N[C@@H](C)C(=O)NCC(=O)N[C@@H](CCCNC(=N)N)C(=O)N[C@@H](CCCCN)C(=O)N[C@@H](CCCCN)C(=O)N[C@@H](CCCNC(=N)N)C(=O)N[C@@H](CCCNC(=N)N)C(=O)N[C@@H](CCC(N)=O)C(=O)N[C@@H](CCCNC(=N)N)C(=O)N[C@@H](CCCNC(=N)N)C(=O)N[C@@H](CCCNC(=N)N)C(=O)N1CCC[C@H]1C(=O)N1CCC[C@H]1C(=O)N[C@@H](CCC(N)=O)C(=O)NCC(=O)NCC(=O)N[C@@H](CCCCN)C(=O)N[C@@H](CCCNC(=N)N)C(=O)N[C@@H](CCCCN)C(=O)N[C@@H](C)C(=O)N[C@@H](Cc1ccc(O)cc1)C(=O)N[C@@H](CCCCN)C(=O)N[C@@H](CCCNC(=N)N)C(=O)N[C@@H](CCCCN)C(=O)N[C@@H](C)C(=O)N[C@@H](Cc1ccc(O)cc1)C(=O)N[C@@H](CCCCN)C(=O)N[C@@H](CCCNC(=N)N)C(=O)N[C@@H](CCCCN)C(=O)N[C@@H](C)C(=O)N[C@@H](CO)C(N)=O
Activity (NHDF): Toxic
Activity (PC-3): Toxic

CC(=O)N[C@@H](C)C(=O)NCC(=O)N[C@H](CCCNC(=N)N)C(=O)N[C@H](CCCCN)C(=O)N[C@H](CCCCN)C(=O)N[C@H](CCCNC(=N)N)C(=O)N[C@H](CCCNC(=N)N)C(=O)N[C@H](CCC(N)=O)C(=O)N[C@H](CCCNC(=N)N)C(=O)N[C@H](CCCNC(=N)N)C(=O)N[C@H](CCCNC(=N)N)C(=O)N1CCC[C@H]1C(=O)N1CCC[C@H]1C(=O)N[C@@H](CCC(N)=O)C(=O)NCC(=O)NCC(=O)N[C@@H](CCCCN)C(=O)N[C@@H](CCCNC(=N)N)C(=O)N[C@@H](CCCCN)C(=O)N[C@@H](C)C(=O)N[C@@H](Cc1ccc(O)cc1)C(=O)N[C@@H](CCCCN)C(=O)N[C@@H](CCCNC(=N)N)C(=O)N[C@@H](CCCCN)C(=O)N[C@@H](C)C(=O)N[C@@H](Cc1ccc(O)cc1)C(=O)N[C@@H](CCCCN)C(=O)N[C@@H](CCCNC(=N)N)C(=O)N[C@@H](CCCCN)C(=O)N[C@@H](C)C(=O)N[C@@H](CO)C(N)=O
Activity [2]: inactive
Activity [3]: inactive

CC(=O)N[C@@H](CCCCN)C(=O)N[C@@H](CCCNC(=N)N)C(=O)N[C@@H](CCCCN)C(=O)N[C@@H](C)C(=O)N[C@@H](CO)C(=O)N[C@@H](CCCCN)C(=O)N[C@@H](CCCNC(=N)N)C(=O)N[C@@H](CCCCN)C(=O)N[C@@H](C)C(=O)N[C@@H](Cc1c[nH]c2ccccc12)C(=O)N[C@@H](CCCCN)C(=O)N[C@@H](CCCNC(=N)N)C(=O)N[C@@H](CCCCN)C(=O)N[C@@H](C)C(=O)N[C@@H](Cc1c[nH]c2ccccc12)C(N)=O (Ac-KRKASKRKAWKRKAW-NH2)
Activity [4]: inactive
Activity [5]: 21.1%
